Reference: ChEMBL document CHEMBL1127892, “(6-oxo-3-pyridazinyl)-benzimidazoles as potent angiotensin II receptor antagonists” (Bioorg Med Chem Lett, 1994)

Key:
[1] = biological target: T1, Angiotensin II receptor (AT-1) type-1 (Rattus norvegicus, UniProt P29089+P25095); test: Concentration required for 50% inhibition of binding against Angiotensin II receptor, type 1 in rat adrenal cortex; format: tissue-based
T1 sequence (P29089 whole entry): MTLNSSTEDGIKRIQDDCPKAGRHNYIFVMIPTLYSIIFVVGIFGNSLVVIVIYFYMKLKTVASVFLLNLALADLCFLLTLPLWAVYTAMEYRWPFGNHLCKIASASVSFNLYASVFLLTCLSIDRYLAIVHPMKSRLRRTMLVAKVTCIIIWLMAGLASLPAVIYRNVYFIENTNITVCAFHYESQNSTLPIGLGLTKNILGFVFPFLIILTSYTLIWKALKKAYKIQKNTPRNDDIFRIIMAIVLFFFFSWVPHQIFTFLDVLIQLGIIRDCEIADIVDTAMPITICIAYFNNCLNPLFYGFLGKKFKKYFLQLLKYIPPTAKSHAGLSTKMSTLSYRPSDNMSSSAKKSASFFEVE
T1 sequence (P25095 whole entry): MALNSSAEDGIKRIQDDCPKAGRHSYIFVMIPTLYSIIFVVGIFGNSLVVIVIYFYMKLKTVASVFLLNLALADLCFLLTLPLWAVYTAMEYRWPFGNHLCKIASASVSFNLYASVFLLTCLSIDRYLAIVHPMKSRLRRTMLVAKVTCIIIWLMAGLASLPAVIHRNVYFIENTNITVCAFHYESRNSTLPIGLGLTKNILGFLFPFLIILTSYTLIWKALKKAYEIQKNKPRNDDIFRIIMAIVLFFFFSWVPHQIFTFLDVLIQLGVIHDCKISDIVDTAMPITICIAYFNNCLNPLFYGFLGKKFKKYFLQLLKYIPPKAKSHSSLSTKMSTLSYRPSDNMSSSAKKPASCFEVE

[2] = biological target: T1, Angiotensin II receptor (AT-1) type-1; test: In vivo percent inhibition of Angiotensin II receptor, type 1 induced increase in diastolic blood pressure in pithed rat at 3 mg/kg i.d.; format: functional, organism-based, Artery; set-up: dose 3 mg/kg, route intraduodenal
[3] = biological target: T2, Type-1 angiotensin II receptor (Oryctolagus cuniculus, UniProt P34976); test: Inhibitory activity against Angiotensin II receptor, type 1 induced contractions in isolated rabbit aortic rings; format: functional
T2 sequence (P34976 whole entry): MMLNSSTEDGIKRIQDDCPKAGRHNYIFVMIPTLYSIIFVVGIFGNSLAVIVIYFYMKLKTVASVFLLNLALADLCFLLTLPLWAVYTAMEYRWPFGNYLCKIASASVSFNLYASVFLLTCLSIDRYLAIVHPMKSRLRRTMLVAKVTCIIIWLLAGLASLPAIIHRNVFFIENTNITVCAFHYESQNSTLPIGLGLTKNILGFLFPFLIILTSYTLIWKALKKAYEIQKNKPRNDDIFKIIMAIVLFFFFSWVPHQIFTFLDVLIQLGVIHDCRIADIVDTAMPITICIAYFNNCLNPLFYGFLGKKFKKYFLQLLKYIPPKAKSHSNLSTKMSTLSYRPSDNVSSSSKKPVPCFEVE

[4] = biological target: T3, Type-1 angiotensin II receptor (Bos taurus, UniProt P25104); test: Concentration required for 50% inhibition of binding against Angiotensin II receptor, type 1 in bovine adrenal cortex; format: tissue-based
T3 sequence (P25104 whole entry): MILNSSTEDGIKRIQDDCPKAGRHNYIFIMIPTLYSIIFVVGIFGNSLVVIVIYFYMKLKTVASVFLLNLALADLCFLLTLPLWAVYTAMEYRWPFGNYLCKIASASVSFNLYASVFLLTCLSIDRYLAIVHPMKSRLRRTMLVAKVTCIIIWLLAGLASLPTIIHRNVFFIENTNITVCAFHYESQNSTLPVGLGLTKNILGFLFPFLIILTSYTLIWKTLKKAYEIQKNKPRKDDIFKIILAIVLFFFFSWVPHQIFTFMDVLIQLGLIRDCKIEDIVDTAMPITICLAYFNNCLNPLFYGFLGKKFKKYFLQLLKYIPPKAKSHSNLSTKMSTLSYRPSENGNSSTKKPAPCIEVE

SMILES	IC50 [1] [µM]	IC50 [3] [µM]	IC50 [4] [µM]	Inhibition [2] [%]
Cc1cc(=O)n(CC(=O)N(C)C)nc1-c1ccc2nc(C3CC3)n(Cc3ccc(-c4ccccc4-c4nn[n-]n4)cc3)c2c1.[K+]	0.0036	–	–	–
CCCc1nc2ccc(C3=NN(CC(=O)N(C)C)C(=O)CC3)cc2n1Cc1ccc(-c2ccccc2-c2nn[n-]n2)cc1.[K+]	0.0017	0.002	–	–
CCc1nc2ccc(C3=NN(CC(=O)N(C)C)C(=O)CC3)cc2n1Cc1ccc(-c2ccccc2-c2nn[n-]n2)cc1.[K+]	0.0016	0.003	–	–
CCCCc1nc2cc(C3=NNC(=O)CC3C)ccc2n1Cc1ccc(-c2ccccc2-c2nnn[nH]2)cc1 (stereo unspecified)	–	–	0.161	–
CCCCc1nc2ccc(-c3nnc(O)cc3C)cc2n1Cc1ccc(-c2ccccc2-c2nn[nH]n2)cc1	0.0044	–	–	–
CCCCc1nc2ccc(C3=NNC(=O)CC3)cc2n1Cc1ccc(-c2ccccc2-c2nn[nH]n2)cc1	0.005	–	–	–
COc1ccc(-c2nc3cc(C4=NNC(=O)CC4C)ccc3n2Cc2ccc(-c3ccccc3-c3nn[nH]n3)cc2)cc1 (stereo unspecified)	–	–	5.5	–
CCCCc1nc2ccc(C3=NNC(=O)CC3C)cc2[nH]1 (stereo unspecified)	–	–	> 1000	–
COc1ccc(-c2nc3ccc(C4=NNC(=O)CC4C)cc3[nH]2)cc1 (stereo unspecified) [PIMOBENDAN]	–	–	17	–

Now from value to compound, other results behind:

IC50 [1] [µM]	IC50 [3] [µM]	IC50 [4] [µM]	SMILES	Inhibition [2] [%]
0.0034	0.004	–	CC1(C)CC(=O)NN=C1c1ccc2nc(C3CC3)n(Cc3ccc(-c4ccccc4-c4nn[n-]n4)cc3)c2c1.[K+]	80
0.0047	0.002	–	CN(C)C(=O)CN1N=C(c2ccc3nc(C4CC4)n(Cc4ccc(-c5ccccc5-c5nn[n-]n5)cc4)c3c2)C(C)(C)CC1=O.[K+]	–
0.0029	0.002	–	CC1CC(=O)N(CC(=O)N(C)C)N=C1c1ccc2nc(C3CC3)n(Cc3ccc(-c4ccccc4-c4nn[n-]n4)cc3)c2c1.[K+] (stereo unspecified)	56
0.0036	0.002	–	CN(C)C(=O)CN1N=C(c2ccc3nc(C4CC4)n(Cc4ccc(-c5ccccc5-c5nn[n-]n5)cc4)c3c2)CCC1=O.[K+]	–
0.0028	–	–	CCCCc1nc2ccc(C3=NN(CC(=O)N(C)C)C(=O)CC3C)cc2n1Cc1ccc(-c2ccccc2-c2nn[n-]n2)cc1.[K+] (stereo unspecified)	–
0.0018	0.002	–	CC1CC(=O)NN=C1c1ccc2nc(C3CC3)n(Cc3ccc(-c4ccccc4-c4nn[nH]n4)cc3)c2c1 (stereo unspecified)	80
0.0018	0.003	–	Cc1cc(O)nnc1-c1ccc2nc(C3CC3)n(Cc3ccc(-c4ccccc4-c4nn[nH]n4)cc3)c2c1	40
0.0063	–	0.022	CCCCc1nc2ccc(C3=NNC(=O)CC3C)cc2n1Cc1ccc(-c2ccccc2-c2nn[nH]n2)cc1 (stereo unspecified)	–
–	–	7	CCCCc1nc2cc(C3=NN(Cc4ccc(-c5ccccc5-c5nn[nH]n5)cc4)C(=O)CC3C)ccc2[nH]1 (stereo unspecified)	–
0.0065	–	–	COC(=O)c1ccccc1CN1N=C(c2ccc3nc(C4CC4)n(Cc4ccc(-c5ccccc5-c5nn[nH]n5)cc4)c3c2)C(C)CC1=O (stereo unspecified)	–
0.0032	0.004	–	COC(=O)CN1N=C(c2ccc3nc(C4CC4)n(Cc4ccc(-c5ccccc5-c5nn[nH]n5)cc4)c3c2)C(C)CC1=O (stereo unspecified)	57
–	–	54	COc1ccc(-c2nc3cc(C4=NN(Cc5ccc(-c6ccccc6-c6nn[nH]n6)cc5)C(=O)CC4C)ccc3[nH]2)cc1 (stereo unspecified)	–
